For experiment [1], the system named is PAF-induced platelet aggregation. As to the kind of experiment: Inhibitory activity of essential oils on PAF-induced platelet aggregation. In kind it is cell-based, New Zealand rabbit. The following applies: rabbit washed platelet suspension, PAF added 2 min after sample, aggregation observed 4 min. As for the experimental part:
The anticoagulant “acid-citrate-dextrose” (ACD) was added to the blood taken from a New Zealand rabbit in a ratio of 1:6 by volume. The resulting blood was centrifuged at 190 g for 15 min at room temperature. After centrifugation, the supernatant containing platelet-rich plasma (PRP) was taken and 0.2 M EDTA was added. The resulting supernatant was centrifuged at 1000 g for 1.5 min. After centrifugation, the pellet containing RBC and WBC was removed and then PRP was centrifuged at 1000 g for 11 min. After centrifugation, the supernatant was removed and the platelet pellet was suspended in Ca^2+--free Tyrode's buffer (containing 1 mM Ca2+). […] The turbidity was determined with a Platelet Aggregation Chromogenic Kinetic System.
0.5 ml of platelet suspension was added to silicon-coated cuvette and put in a Platelet Aggregation Chromogenic Kinetic System and bathed for 2 min at 37° C. […] The ratio of aggregation was calculated by the following formula: Ratio of aggregation %=(absorptivity before adding PAF−absorptivity after adding PAF/(absorptivity before adding PAF−absorptivity of Tyrode's buffer)×100% The ratio of inhibition was calculated by the following formula: Ratio of inhibition %=100%−(ratio of aggregation of sample/ratio of aggregation of control×100%)

Experiment [2] concerns mouse macrophage cell line RAW 264.7. As to the kind of experiment: Inhibitory effect of essential oils on NO production by LPS-activated mouse macrophage cell line (Griess reagent). In kind it is cell-based. The following applies: positive control, concentration not given; LPS (Inducer) 60 ± 0.5, Blank 3.5 ± 0.3. The protocol:
The mouse macrophage cell line RAW 264.7 was purchased from Bioresources Collection & Research Center, Taiwan and numbered CCRC 60001. The cells were added to Dulbecco's Modified Eagle Medium (DMEM, GibcoBRL) containing 10% (v/v) fetal bovine serum (FBS, GibcoBRL) and then incubated in a CO2 incubator containing 5% CO2 at 37° C. The cells grow to 90% density and are then washed with phosphate buffered saline (PBS). The cells were colleted and diluted with fresh DMEM to the appropriate concentration.
The mouse macrophage cells were transferred in a 96-well plate in a concentration of 10,000 cells/well. After incubating for 24 hours, the cells were activated with the medium containing 100 μg/ml Lipopolysaccharide (LPS, SIGMA) and 100·μg/ml Interferon-γ (INF-γ, GibcoBRL). Meanwhile, the essential oils of herbal medicine in different concentrations were added to the wells. After incubating for 24 hours, 50 μl of supernatants were respectively taken and put into a 96-well plate. […] Then, the absorbance of the resulting cell supernatants was determined with a microplate reader at a wavelength of […]. The percentage of nitric oxide can be calculated by the following formula: % nitric oxide=(sample absorptivity/control absorptivity)×100%.
A general note: The Griess reaction detects nitrite, a stable product of nitric oxide.

Converted amounts (≈) assume the structure as drawn.

As usually defined, the IC50 is the concentration that gives 50% inhibition. The low end stands for greater potency in that assay, the high end for weaker potency in that assay. Turning to `CCCCCCCCCCCCCCCCCCNC(=O)OCC(COP(=O)([O-])OCC[n+]1ccsc1)OC` (centres unmarked) [CV-3988], the IC50 in experiment [1] was 1420 µg/mL (≈ 2400 µM). With `CNC(=N)NCCC[C@H](N)C(=O)O` [L-NMMA], the Nitric oxide in experiment [2] was 25 ± 0.6 µM.
